According to ChEMBL document CHEMBL4507282, “Data for DCP probe BI-1950” (2021):

Columns and labels:
[1] = system: Epidermal growth factor receptor (Homo sapiens), P00533 [L858R]; details: Compound concentration 1000.0 nM
[2] = target: Aurora kinase A (Homo sapiens) (UniProt O14965); details: Compound concentration 1000.0 nM
[3] = target: Rho-associated protein kinase 1 (Homo sapiens) (UniProt Q13464); details: Compound concentration 1000.0 nM
[4] = target: Ribosomal protein S6 kinase alpha-6 (Homo sapiens) (UniProt Q9UK32); details: Compound concentration 1000.0 nM
[5] = target: Uncharacterized serine/threonine-protein kinase SBK3 (Homo sapiens) (UniProt P0C264); details: Compound concentration 1000.0 nM
[6] = target: Mitogen-activated protein kinase 13 (Homo sapiens) (UniProt O15264); details: Compound concentration 1000.0 nM
[7] = target: Serine/threonine-protein kinase NLK (Homo sapiens) (UniProt Q9UBE8); details: Compound concentration 1000.0 nM
[8] = system: Tyrosine-protein kinase ABL1 (Homo sapiens), P00519 [F317L]; details: Compound concentration 1000.0 nM
[9] = target: Serine/threonine-protein kinase WNK1 (Homo sapiens) (UniProt Q9H4A3); details: Compound concentration 1000.0 nM
[10] = target: Tyrosine-protein kinase receptor Tie-1 (Homo sapiens) (UniProt P35590); details: Compound concentration 1000.0 nM
[11] = target: Serine/threonine-protein kinase 24 (Homo sapiens) (UniProt Q9Y6E0); details: Compound concentration 1000.0 nM
[12] = system: Epidermal growth factor receptor (Homo sapiens), P00533 [T790M]; details: Compound concentration 1000.0 nM
[13] = target: Ribosomal protein S6 kinase alpha-4 (Homo sapiens) (UniProt O75676); details: Compound concentration 1000.0 nM
[14] = target: Activin receptor type-1 (Homo sapiens) (UniProt Q04771); details: Compound concentration 1000.0 nM
[15] = target: SRSF protein kinase 3 (Homo sapiens) (UniProt Q9UPE1); details: Compound concentration 1000.0 nM
[16] = target: Calcium-dependent protein kinase 1 (Plasmodium falciparum) (UniProt P62344); details: Compound concentration 1000.0 nM
[17] = system: Epidermal growth factor receptor (Homo sapiens), P00533 [G719C]; details: Compound concentration 1000.0 nM
[18] = target: Casein kinase II subunit alpha (Homo sapiens) (UniProt P68400); details: Compound concentration 1000.0 nM
[19] = target: D(1A) dopamine receptor (Homo sapiens) (UniProt P21728); details: Compound concentration 10.0 uM
[20] = system: Receptor-type tyrosine-protein kinase FLT3 (Homo sapiens), P36888 [D835H]; details: Compound concentration 1000.0 nM
[21] = target: Mast/stem cell growth factor receptor Kit (Homo sapiens) (UniProt P10721); details: Compound concentration 1000.0 nM
[22] = target: LIM domain kinase 1 (Homo sapiens) (UniProt P53667); details: Compound concentration 1000.0 nM
[23] = target: Cyclin-dependent kinase 2 (Homo sapiens) (UniProt P24941); details: Compound concentration 1000.0 nM
[24] = system: Epidermal growth factor receptor (Homo sapiens), P00533 [UNDEFINED MUTATION]; details: Compound concentration 1000.0 nM
[25] = target: 5-hydroxytryptamine receptor 7 (Homo sapiens) (UniProt P34969); details: Compound concentration 10.0 uM
[26] = target: Mitogen-activated protein kinase kinase kinase 4 (Homo sapiens) (UniProt Q9Y6R4); details: Compound concentration 1000.0 nM
[27] = target: Mitogen-activated protein kinase kinase kinase kinase 1 (Homo sapiens) (UniProt Q92918); details: Compound concentration 1000.0 nM
[28] = target: Serine/threonine-protein kinase N2 (Homo sapiens) (UniProt Q16513); details: Compound concentration 1000.0 nM
[29] = target: Ephrin type-A receptor 6 (Homo sapiens) (UniProt Q9UF33); details: Compound concentration 1000.0 nM
[30] = target: cGMP-dependent protein kinase 2 (Homo sapiens) (UniProt Q13237); details: Compound concentration 1000.0 nM
[31] = system: Phosphatidylinositol 4,5-bisphosphate 3-kinase catalytic subunit alpha isoform (Homo sapiens), P42336 [I800L]; details: Compound concentration 1000.0 nM
[32] = target: Citron Rho-interacting kinase (Homo sapiens) (UniProt O14578); details: Compound concentration 1000.0 nM
[33] = target: Serine/threonine-protein kinase 10 (Homo sapiens) (UniProt O94804); details: Compound concentration 1000.0 nM
[34] = system: Receptor-type tyrosine-protein kinase FLT3 (Homo sapiens), P36888 [UNDEFINED MUTATION]; details: Compound concentration 1000.0 nM
[35] = target: SNF-related serine/threonine-protein kinase (Homo sapiens) (UniProt Q9NRH2); details: Compound concentration 1000.0 nM
[36] = system: Tyrosine-protein kinase ABL1 (Homo sapiens), P00519 [H396P]; details: Compound concentration 1000.0 nM
[37] = target: Serine/threonine-protein kinase LATS1 (Homo sapiens) (UniProt O95835); details: Compound concentration 1000.0 nM
[38] = target: Ribosomal protein S6 kinase alpha-3 (Homo sapiens) (UniProt P51812); details: Compound concentration 1000.0 nM
[39] = target: Bone morphogenetic protein receptor type-1A (Homo sapiens) (UniProt P36894); details: Compound concentration 1000.0 nM
[40] = target: Testis-specific serine/threonine-protein kinase 1 (Homo sapiens) (UniProt Q9BXA7); details: Compound concentration 1000.0 nM
[41] = target: Tyrosine-protein kinase Fgr (Homo sapiens) (UniProt P09769); details: Compound concentration 1000.0 nM
[42] = system: Mast/stem cell growth factor receptor Kit (Homo sapiens), P10721 [V559D,T670I]; details: Compound concentration 1000.0 nM
[43] = target: Beta-adrenergic receptor kinase 1 (Homo sapiens) (UniProt P25098); details: Compound concentration 1000.0 nM

Bone morphogenetic protein receptor type-1A (Homo sapiens), sequence (P36894 whole entry): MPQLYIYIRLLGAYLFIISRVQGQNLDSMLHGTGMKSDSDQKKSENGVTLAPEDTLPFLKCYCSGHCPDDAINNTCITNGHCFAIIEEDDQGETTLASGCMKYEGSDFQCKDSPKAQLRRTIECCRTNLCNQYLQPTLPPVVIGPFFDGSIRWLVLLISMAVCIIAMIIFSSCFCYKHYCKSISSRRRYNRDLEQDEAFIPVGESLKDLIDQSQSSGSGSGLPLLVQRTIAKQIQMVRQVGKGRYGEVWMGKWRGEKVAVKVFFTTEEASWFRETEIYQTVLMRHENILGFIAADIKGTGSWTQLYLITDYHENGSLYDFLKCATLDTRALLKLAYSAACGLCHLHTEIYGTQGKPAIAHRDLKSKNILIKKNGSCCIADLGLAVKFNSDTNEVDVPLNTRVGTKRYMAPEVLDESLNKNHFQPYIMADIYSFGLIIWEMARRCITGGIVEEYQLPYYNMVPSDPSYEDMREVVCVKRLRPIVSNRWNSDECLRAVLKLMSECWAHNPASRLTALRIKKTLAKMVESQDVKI
Casein kinase II subunit alpha (Homo sapiens), sequence (P68400 whole entry, looked up): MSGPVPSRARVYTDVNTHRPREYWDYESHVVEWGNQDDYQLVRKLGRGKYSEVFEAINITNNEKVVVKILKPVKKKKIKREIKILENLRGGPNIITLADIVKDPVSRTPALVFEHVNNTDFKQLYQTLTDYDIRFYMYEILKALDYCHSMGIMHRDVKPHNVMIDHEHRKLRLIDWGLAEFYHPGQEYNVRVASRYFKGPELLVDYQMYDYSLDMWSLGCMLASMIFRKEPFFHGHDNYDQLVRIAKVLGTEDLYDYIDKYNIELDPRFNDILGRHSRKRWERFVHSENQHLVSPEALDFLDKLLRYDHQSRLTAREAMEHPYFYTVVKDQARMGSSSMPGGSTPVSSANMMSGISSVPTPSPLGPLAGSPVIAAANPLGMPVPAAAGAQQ
Phosphatidylinositol 4,5-bisphosphate 3-kinase catalytic subunit alpha isoform (Homo sapiens), P42336 [I800L], sequence (P42336 whole entry I800L, canonical isoform): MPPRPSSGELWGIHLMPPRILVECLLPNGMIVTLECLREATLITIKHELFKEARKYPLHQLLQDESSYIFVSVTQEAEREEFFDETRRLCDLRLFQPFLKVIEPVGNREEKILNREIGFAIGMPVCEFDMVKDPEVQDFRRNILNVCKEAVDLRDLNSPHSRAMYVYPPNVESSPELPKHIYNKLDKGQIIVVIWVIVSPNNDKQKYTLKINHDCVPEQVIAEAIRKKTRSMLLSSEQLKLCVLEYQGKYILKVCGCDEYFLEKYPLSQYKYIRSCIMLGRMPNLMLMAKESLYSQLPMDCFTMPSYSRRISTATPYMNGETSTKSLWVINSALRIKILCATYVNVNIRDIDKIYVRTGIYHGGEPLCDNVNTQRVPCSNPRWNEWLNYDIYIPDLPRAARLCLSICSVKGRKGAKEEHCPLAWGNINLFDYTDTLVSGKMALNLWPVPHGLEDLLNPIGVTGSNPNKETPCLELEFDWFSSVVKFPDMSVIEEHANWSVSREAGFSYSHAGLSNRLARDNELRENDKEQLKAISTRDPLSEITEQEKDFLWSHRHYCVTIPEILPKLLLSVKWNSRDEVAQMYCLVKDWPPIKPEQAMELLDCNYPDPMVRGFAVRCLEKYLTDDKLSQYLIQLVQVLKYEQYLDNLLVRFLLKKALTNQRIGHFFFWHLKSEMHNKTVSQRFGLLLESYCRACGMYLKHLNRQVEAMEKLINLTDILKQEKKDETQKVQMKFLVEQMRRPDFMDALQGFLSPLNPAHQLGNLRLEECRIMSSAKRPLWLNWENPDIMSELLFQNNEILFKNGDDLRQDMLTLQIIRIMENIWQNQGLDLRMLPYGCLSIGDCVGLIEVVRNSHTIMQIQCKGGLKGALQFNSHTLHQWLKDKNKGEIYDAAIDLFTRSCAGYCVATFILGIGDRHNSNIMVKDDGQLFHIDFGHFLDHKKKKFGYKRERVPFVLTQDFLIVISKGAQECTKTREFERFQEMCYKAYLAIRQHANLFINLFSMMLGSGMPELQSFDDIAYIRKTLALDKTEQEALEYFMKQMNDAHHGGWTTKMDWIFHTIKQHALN
D(1A) dopamine receptor (Homo sapiens), sequence (P21728 whole entry): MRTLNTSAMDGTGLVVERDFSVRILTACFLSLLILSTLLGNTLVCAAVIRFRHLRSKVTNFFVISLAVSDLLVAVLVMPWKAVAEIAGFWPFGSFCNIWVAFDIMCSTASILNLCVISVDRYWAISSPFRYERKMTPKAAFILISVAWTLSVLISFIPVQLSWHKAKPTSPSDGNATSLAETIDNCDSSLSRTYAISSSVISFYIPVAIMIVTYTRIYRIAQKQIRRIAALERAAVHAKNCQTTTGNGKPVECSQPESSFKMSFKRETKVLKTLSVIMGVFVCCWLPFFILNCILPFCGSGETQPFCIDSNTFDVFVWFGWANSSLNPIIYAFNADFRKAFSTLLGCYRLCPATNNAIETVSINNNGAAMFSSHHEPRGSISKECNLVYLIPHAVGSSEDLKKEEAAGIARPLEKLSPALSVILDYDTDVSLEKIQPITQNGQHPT
Calcium-dependent protein kinase 1 (Plasmodium falciparum), sequence (P62344 2-524 limits assumed): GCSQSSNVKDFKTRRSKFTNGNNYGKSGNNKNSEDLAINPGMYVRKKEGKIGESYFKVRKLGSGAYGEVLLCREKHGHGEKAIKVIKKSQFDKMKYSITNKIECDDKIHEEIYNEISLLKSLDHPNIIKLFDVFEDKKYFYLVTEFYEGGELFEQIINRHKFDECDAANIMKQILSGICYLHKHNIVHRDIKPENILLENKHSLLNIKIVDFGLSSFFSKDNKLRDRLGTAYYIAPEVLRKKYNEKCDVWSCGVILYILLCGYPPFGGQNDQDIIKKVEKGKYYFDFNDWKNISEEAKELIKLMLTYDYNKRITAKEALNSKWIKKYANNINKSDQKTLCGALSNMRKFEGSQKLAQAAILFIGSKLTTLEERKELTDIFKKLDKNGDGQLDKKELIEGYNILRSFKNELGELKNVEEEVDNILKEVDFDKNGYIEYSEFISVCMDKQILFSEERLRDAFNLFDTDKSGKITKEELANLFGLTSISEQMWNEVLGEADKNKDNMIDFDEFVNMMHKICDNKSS
Tyrosine-protein kinase receptor Tie-1 (Homo sapiens), sequence (P35590 whole entry): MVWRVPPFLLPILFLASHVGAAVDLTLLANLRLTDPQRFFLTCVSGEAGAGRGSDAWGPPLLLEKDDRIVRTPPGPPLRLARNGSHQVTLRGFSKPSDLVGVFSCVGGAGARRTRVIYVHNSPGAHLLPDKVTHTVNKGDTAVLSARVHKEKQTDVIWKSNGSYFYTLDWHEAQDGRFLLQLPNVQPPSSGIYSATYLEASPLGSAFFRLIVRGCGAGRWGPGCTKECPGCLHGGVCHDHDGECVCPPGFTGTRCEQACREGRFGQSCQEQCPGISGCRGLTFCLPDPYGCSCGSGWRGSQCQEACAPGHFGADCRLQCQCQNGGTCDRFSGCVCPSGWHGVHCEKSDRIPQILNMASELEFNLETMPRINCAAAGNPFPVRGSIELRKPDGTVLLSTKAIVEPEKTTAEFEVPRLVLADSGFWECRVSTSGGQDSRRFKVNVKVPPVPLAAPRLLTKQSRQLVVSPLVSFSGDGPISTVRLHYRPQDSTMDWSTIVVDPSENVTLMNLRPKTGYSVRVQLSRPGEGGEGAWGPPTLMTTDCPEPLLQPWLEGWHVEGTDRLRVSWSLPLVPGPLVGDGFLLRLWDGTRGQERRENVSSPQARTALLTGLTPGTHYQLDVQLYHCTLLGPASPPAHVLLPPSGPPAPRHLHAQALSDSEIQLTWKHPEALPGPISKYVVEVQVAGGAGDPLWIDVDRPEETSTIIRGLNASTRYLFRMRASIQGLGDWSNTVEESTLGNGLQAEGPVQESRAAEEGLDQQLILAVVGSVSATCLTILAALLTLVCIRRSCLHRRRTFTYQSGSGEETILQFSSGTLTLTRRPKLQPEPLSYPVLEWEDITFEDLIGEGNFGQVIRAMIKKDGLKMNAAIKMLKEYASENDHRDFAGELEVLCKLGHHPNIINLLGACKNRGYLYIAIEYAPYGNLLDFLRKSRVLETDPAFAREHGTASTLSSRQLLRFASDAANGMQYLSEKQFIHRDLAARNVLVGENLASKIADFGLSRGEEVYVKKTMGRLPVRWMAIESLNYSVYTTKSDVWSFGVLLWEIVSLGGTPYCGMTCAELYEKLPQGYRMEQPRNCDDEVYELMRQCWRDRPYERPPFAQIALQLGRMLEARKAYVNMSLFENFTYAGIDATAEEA
Activin receptor type-1 (Homo sapiens), sequence (Q04771 whole entry): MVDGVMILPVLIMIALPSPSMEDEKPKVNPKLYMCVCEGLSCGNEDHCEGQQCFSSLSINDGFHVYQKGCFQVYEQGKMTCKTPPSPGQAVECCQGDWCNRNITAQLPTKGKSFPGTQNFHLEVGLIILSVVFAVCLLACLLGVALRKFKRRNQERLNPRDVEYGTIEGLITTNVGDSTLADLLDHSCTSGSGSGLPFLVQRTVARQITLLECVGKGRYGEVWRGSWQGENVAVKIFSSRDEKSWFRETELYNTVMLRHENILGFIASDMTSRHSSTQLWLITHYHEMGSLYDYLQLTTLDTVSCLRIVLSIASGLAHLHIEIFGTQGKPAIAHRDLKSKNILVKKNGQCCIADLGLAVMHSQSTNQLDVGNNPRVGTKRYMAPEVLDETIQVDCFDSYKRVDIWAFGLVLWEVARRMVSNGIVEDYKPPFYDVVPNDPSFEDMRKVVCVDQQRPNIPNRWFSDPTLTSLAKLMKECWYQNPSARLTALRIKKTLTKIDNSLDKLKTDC
Serine/threonine-protein kinase 24 (Homo sapiens), sequence (Q9Y6E0 whole entry, looked up): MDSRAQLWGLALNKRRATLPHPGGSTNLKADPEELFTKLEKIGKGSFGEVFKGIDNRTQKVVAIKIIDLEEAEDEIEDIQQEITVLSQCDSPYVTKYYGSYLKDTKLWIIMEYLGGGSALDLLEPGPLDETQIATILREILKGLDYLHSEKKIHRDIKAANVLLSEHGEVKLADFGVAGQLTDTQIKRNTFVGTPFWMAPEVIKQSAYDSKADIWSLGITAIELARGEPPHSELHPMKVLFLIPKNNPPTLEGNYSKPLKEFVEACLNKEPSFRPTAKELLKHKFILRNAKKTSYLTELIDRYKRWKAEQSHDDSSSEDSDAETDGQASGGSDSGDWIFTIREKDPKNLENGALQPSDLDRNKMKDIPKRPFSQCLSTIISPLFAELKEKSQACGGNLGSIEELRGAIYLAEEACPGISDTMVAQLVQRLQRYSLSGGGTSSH

C[C@@]1(Cc2ccc(C#N)cc2)C(=O)N(c2cc(Cl)cc(Cl)c2)c2ncc(C(=O)NC3(c4nc(C5CCC5)no4)CC3)n21 [BI 9446]
inactive: residual activity [1] 100% | residual activity [2] 92% | residual activity [3] 100% | residual activity [4] 100% | residual activity [5] 100% | residual activity [6] 100% | residual activity [7] 100% | residual activity [8] 100% | residual activity [9] 99% | residual activity [10] 100% | residual activity [11] 93% | residual activity [12] 86% | residual activity [13] 95% | residual activity [14] 89% | residual activity [15] 100% | residual activity [16] 100% | residual activity [17] 100% | residual activity [18] 91% | inhibition [19] 18.6% | residual activity [20] 100% | residual activity [21] 100% | residual activity [22] 90% | residual activity [23] 100% | residual activity [24] 100% | inhibition [25] 4.18% | residual activity [26] 100% | residual activity [27] 100% | residual activity [28] 100% | residual activity [29] 88% | residual activity [30] 100% | residual activity [31] 88% | residual activity [32] 100% | residual activity [33] 100% | residual activity [34] 100% | residual activity [35] 100% | residual activity [36] 96% | residual activity [37] 96% | residual activity [38] 100% | residual activity [39] 100% | residual activity [40] 76% | residual activity [41] 100% | residual activity [42] 100% | residual activity [43] 100%

C[C@H](NC(=O)c1cnc2n1[C@](C)(Cc1ccc(C#N)cc1)C(=O)N2c1cc(Cl)c(F)c(Cl)c1)C(=O)NC1(c2ccccn2)CC1 [BI 1950]
inactive: residual activity [1] 100% | residual activity [2] 100% | residual activity [3] 100% | residual activity [4] 91% | residual activity [5] 100% | residual activity [6] 100% | residual activity [7] 100% | residual activity [8] 98% | residual activity [9] 100% | residual activity [10] 100% | residual activity [11] 100% | residual activity [12] 95% | residual activity [13] 63% | residual activity [14] 97% | residual activity [15] 100% | residual activity [16] 100% | residual activity [17] 100% | residual activity [18] 81% | inhibition [19] 1.26% | residual activity [20] 100% | residual activity [21] 100% | residual activity [22] 100% | residual activity [23] 100% | residual activity [24] 100% | inhibition [25] -4.31% | residual activity [26] 97% | residual activity [27] 100% | residual activity [28] 63% | residual activity [29] 100% | residual activity [30] 85% | residual activity [31] 100% | residual activity [32] 100% | residual activity [33] 100% | residual activity [34] 100% | residual activity [35] 100% | residual activity [36] 91% | residual activity [37] 100% | residual activity [38] 100% | residual activity [39] 98% | residual activity [40] 79% | residual activity [41] 100% | residual activity [42] 100% | residual activity [43] 100%
